Reference: US12157717B2, “Compounds for the treatment of bovine or swine respiratory disease” (Intervet Inc., priority 2018, dated 2024)
Values after ≈ are worked out from the molar mass of the structure shown.

Columns and labels:
Assay type in all cases: cell-based
[1] = tested on: Mannheimia haemolytica MH 10720 (154); assay: MIC, broth-microdilution (CLSI), strain MH 10720; details: Mannheimia haemolytica 154, BRD field isolate
Method: (§1) The Minimum inhibitory concentrations (MIC) of compounds according to the invention for a number of veterinary bacterial pathogens were determined by the broth-microdilution method according to CLSI document VETO 1-A4.
(§2) Microdilution trays containing a doubling dilution series of the test compound were used for the tests. The MIC results were interpreted according to the CLSI documents VET01-S3. The lowest concentration of compound at which no visible growth (i.e. no turbidity) detected by the unaided eye was recorded as the MIC.

[2] = tested on: Pasteurella multocida PM 6267 (P 2225 (L386)); assay: MIC, broth-microdilution (CLSI), strain PM 6267; details: Pasteurella multocida P 2225 (L386), reference strain (mouse infection strain)
Method: as §1, §2

[3] = tested on: Mannheimia haemolytica MH 6357 (M7/2); assay: MIC, broth-microdilution (CLSI), strain MH 6357; details: Mannheimia haemolytica M7/2, reference strain (cattle infection strain)
Method: as §1, §2

[4] = tested on: Mannheimia haemolytica MH 12587 (1071), macrolide-resistance: erm+, E+; assay: MIC, broth-microdilution (CLSI), strain MH 12587; details: Mannheimia haemolytica 1071, BRD field isolate
Method: as §1, §2

[5] = tested on: Mannheimia haemolytica MH 13065 (XB0446-6003.9); assay: MIC, broth-microdilution (CLSI), strain MH 13065; details: Mannheimia haemolytica XB0446-6003.9, BRD field isolate
Method: as §1, §2

[6] = tested on: Pasteurella multocida PM 10775 (080130003051); assay: MIC, broth-microdilution (CLSI), strain PM 10775; details: Pasteurella multocida 080130003051, BRD field isolate
Method: as §1, §2

[7] = tested on: Pasteurella multocida PM 6391 (ATCC 43137); assay: MIC, broth-microdilution (CLSI), strain PM 6391; details: Pasteurella multocida ATCC 43137, reference strain
Method: as §1, §2

[8] = tested on: Mannheimia haemolytica MH 13093 (XB0472-6014.1); assay: MIC, broth-microdilution (CLSI), strain MH 13093; details: Mannheimia haemolytica XB0472-6014.1, BRD field isolate
Method: as §1, §2

[9] = tested on: Pasteurella multocida PM 12080 (IV102277-0093); assay: MIC, broth-microdilution (CLSI), strain PM 12080; details: Pasteurella multocida IV102277-0093, BRD field isolate
Method: as §1, §2

[10] = tested on: Mannheimia haemolytica MH 6374 (ATCC 33396); assay: MIC, broth-microdilution (CLSI), strain MH 6374; details: Mannheimia haemolytica ATCC 33396, reference strain
Method: as §1, §2

SMILES | MIC MH 10720 [1] [µM] | MIC PM 6267 [2] [µM] | MIC MH 6357 [3] [µM] | MIC MH 12587 [4] [µM] | MIC MH 13065 [5] [µM] | MIC PM 10775 [6] [µM] | MIC PM 6391 [7] [µM] | MIC MH 13093 [8] [µM] | MIC PM 12080 [9] [µM] | MIC MH 6374 [10] [µM]
CNC(=O)C(NC(=O)c1ccc(C#Cc2ccc(CNCCOC)cc2)cc1)C(=O)NO (stereo not shown) [Compound 3] | 0.8 (≈ 0.351 µg/mL) | 0.2 (≈ 0.0877 µg/mL) | 1.6 (≈ 0.702 µg/mL) | 6.3 (≈ 2.76 µg/mL) | 1.6 (≈ 0.702 µg/mL) | ≤0.1 | 0.4 (≈ 0.175 µg/mL) | 1.6 (≈ 0.702 µg/mL) | 0.4 (≈ 0.175 µg/mL) | 3.1 (≈ 1.36 µg/mL)
CNC(=O)C(C(=O)NO)N(C)C(=O)c1ccc(C#Cc2ccc(CNCCOC)cc2)cc1 (stereo not shown) [Compound 21] | 1.6 (≈ 0.724 µg/mL) | 1.6 (≈ 0.724 µg/mL) | 3.1 (≈ 1.4 µg/mL) | 12.5 (≈ 5.66 µg/mL) | 3.1 (≈ 1.4 µg/mL) | 0.4 (≈ 0.181 µg/mL) | 3.1 (≈ 1.4 µg/mL) | 12.5 (≈ 5.66 µg/mL) | 1.6 (≈ 0.724 µg/mL) | 6.3 (≈ 2.85 µg/mL)
C=CCNCc1ccc(C#Cc2ccc(C(=O)NC(C(=O)NC)C(=O)NO)cc2)cc1 (stereo not shown) [Compound 2] | 0.4 (≈ 0.168 µg/mL) | 0.2 (≈ 0.0841 µg/mL) | 0.8 (≈ 0.336 µg/mL) | 0.8 (≈ 0.336 µg/mL) | 0.8 (≈ 0.336 µg/mL) | ≤0.1 | 0.4 (≈ 0.168 µg/mL) | 1.6 (≈ 0.673 µg/mL) | ≤0.1 | 1.6 (≈ 0.673 µg/mL)
CNC(=O)C(C(=O)NO)N(C)C(=O)c1ccc(C#Cc2ccc(CNCc3ccccc3)cc2)cc1 (stereo not shown) [Compound 23] | 0.4 (≈ 0.194 µg/mL) | 0.4 (≈ 0.194 µg/mL) | 1.6 (≈ 0.775 µg/mL) | 3.1 (≈ 1.5 µg/mL) | 1.6 (≈ 0.775 µg/mL) | ≤0.1 | 1.6 (≈ 0.775 µg/mL) | 1.6 (≈ 0.775 µg/mL) | 0.8 (≈ 0.388 µg/mL) | 0.8 (≈ 0.388 µg/mL)
CNC(=O)C(C(=O)NO)N(C)C(=O)c1ccc(C#Cc2ccc(CN3CCOCC3)cc2)cc1 (stereo not shown) [Compound 22] | 0.4 (≈ 0.186 µg/mL) | ≤0.1 | 1.6 (≈ 0.743 µg/mL) | 6.3 (≈ 2.93 µg/mL) | 3.1 (≈ 1.44 µg/mL) | ≤0.1 | 0.4 (≈ 0.186 µg/mL) | 3.1 (≈ 1.44 µg/mL) | 0.4 (≈ 0.186 µg/mL) | 1.6 (≈ 0.743 µg/mL)
CNC(=O)C(NC(=O)c1ccc(C#Cc2ccc(CN3CCOCC3)cc2)cc1)C(=O)NO (stereo not shown) [Compound 4] | 0.4 (≈ 0.18 µg/mL) | ≤0.1 | 1.6 (≈ 0.721 µg/mL) | 6.3 (≈ 2.84 µg/mL) | 1.6 (≈ 0.721 µg/mL) | ≤0.1 | ≤0.1 | 1.6 (≈ 0.721 µg/mL) | ≤0.1 | 3.1 (≈ 1.4 µg/mL)
CNC(=O)C(NC(=O)c1ccc(C#Cc2ccc(CNC3CC3)cc2)cc1)C(=O)NO (stereo not shown) [Compound 1] | ≤0.1 | ≤0.1 | 0.4 (≈ 0.168 µg/mL) | 0.8 (≈ 0.336 µg/mL) | 0.4 (≈ 0.168 µg/mL) | ≤0.1 | ≤0.1 | 1.6 (≈ 0.673 µg/mL) | ≤0.1 | 0.4 (≈ 0.168 µg/mL)
